What was measured:
[1] = Inhibition of nitration of compound 1A in the presence of nitrite by antioxidant inhibitor agents; format: physicochemical; details: for Nitration (%) of 1A with inhibiting agent: 1A 50 μM, NaNO2 100 μM; for inhibition of the nitrite-mediated nitration of 1A: pH and nitrite concentration that give almost total conversion to the nitro reaction product
Description: (§1) It is known that L-tyrosine can be converted to a nitro reaction product in which the NO2 group is substituted ortho to the ring hydroxyl group. The experimental procedure for determining the extent of nitration of L-tyrosine was used for determining the nitration of compound 1A and the inhibition thereof by selected antioxidants. The experimental procedure for L-tyrosine is known (1998, Chem. Res. Toxicol., 11, 1578). In brief, solutions of compound 1A (50 μM) were exposed to solutions of NaNO3 (2500 μM) and/or NaNO2 (various concentrations) at various pH values, at 37° C. and in the presence or absence of phosphate buffer. The nitration reaction leads to the formation of the 5′-nitro reaction product of compound 1A. This reaction product can be detected and quantified using HPLC, the reaction product having a reduced retention time (under the conditions used) compared to the parent compound. Antioxidant inhibitors were then added to NaNO2— and 1A-containing test solutions and the nitration tests repeated.
On addition of selected antioxidant inhibiting agents to compound 1A in the presence of nitrite, the results of Table 2 were achieved. The amount of antioxidant used was generally around 10-20 times the amount of compound 1A.

[2] = Clinical testing: nitrated reaction product after compound 1A as solution or enteric coated tablets; format: in vivo, human; details: solution, single dose, clinically relevant dosages
Source text: Clinically relevant dosages of compound 1A were given to human subjects in the form of a solution in a single dose.

[3] = Nitration of compound 1A in the presence of nitrite and/or nitrate at various pH (HPLC-MS/MS); format: physicochemical; details: 1A 50 μM
Description: as §1
Analysis was by HPLC-MS/MS, with the following conditions: […]

[4] = In vivo nitration study in rats; details: given with nitrate and nitrite solution (54 mg and 4 mg per rat)

O=C1O[C@H]([C@@H](O)CO)C([O-])=C1O.[Na+] [Sodium ascorbate]
Nitration (%) of 1A with inhibiting agent ([1]; pH 2 (HCl), 4 hr): 0.00% | Nitration (%) of 1A with inhibiting agent ([1]; pH 2 (phosphate), 4 hr): 0.00% | Nitration (%) of 1A with inhibiting agent ([1]; pH 6.4, 4 hr): 0.00% | Nitration (%) of 1A with inhibiting agent ([1]; pH 7.2, 4 hr): 0.00% | inhibition of the nitrite-mediated nitration of 1A [1]: essentially complete inhibition

Cc1cc(C(C)(C)C)c(O)c(C(C)(C)C)c1 [BHT, butylated hydroxytoluene]
Nitration (%) of 1A with inhibiting agent ([1]; pH 2 (HCl), 24 hr): 0.02% | inhibition of the nitrite-mediated nitration of 1A [1]: essentially complete inhibition

O=S([O-])O.[Na+] [Sodium bisulfite]
Nitration (%) of 1A with inhibiting agent ([1]; pH 2 (HCl), 0 hr): 0.77% | Nitration (%) of 1A with inhibiting agent ([1]; pH 2 (HCl), 2 hr): 0.11% | Nitration (%) of 1A with inhibiting agent ([1]; pH 2 (phosphate), 0 hr): 0.11% | Nitration (%) of 1A with inhibiting agent ([1]; pH 2 (phosphate), 2 hr): 0.16% | Nitration (%) of 1A with inhibiting agent ([1]; pH 2 (phosphate), 4 hr): 0.17% | Nitration (%) of 1A with inhibiting agent ([1]; pH 6.4 (NaAc), 2 hr): 0% | Nitration (%) of 1A with inhibiting agent ([1]; pH 6.4 (NaAc), 4 hr): 0% | Nitration (%) of 1A with inhibiting agent ([1]; pH 6.4 (phosphate), 2 hr): 0% | Nitration (%) of 1A with inhibiting agent ([1]; pH 6.4 (phosphate), 4 hr): 0%

Catechin
Nitration (%) of 1A with inhibiting agent ([1]; pH 2 (HCl), 4 hr): 0.01% | Nitration (%) of 1A with inhibiting agent ([1]; pH 2 (HCl), 24 hr): 0.02% | Nitration (%) of 1A with inhibiting agent ([1]; pH 2 (phosphate), 4 hr): 0.01% | Nitration (%) of 1A with inhibiting agent ([1]; pH 2 (phosphate), 24 hr): 0% | Nitration (%) of 1A with inhibiting agent ([1]; pH 6.4 (NaAc), 4 hr): 0% | Nitration (%) of 1A with inhibiting agent ([1]; pH 6.4 (NaAc), 24 hr): 0% | Nitration (%) of 1A with inhibiting agent ([1]; pH 6.4 (phosphate), 4 hr): 0% | Nitration (%) of 1A with inhibiting agent ([1]; pH 6.4 (phosphate), 24 hr): 0%

CC(C)c1cc(Oc2c(Br)cc(NC(=O)CC(=O)O)cc2Br)ccc1O [compound 1A, 3-[[3,5-Dibromo-4-[4-hydroxy-3-(1-methylethyl)-phenoxy]-phenyl]-amino]-3-oxopropanoic acid]
nitrated reaction product in human subjects [2]: detected in a significant number of the subjects | Nitration (%) ([3]; NaNO2 100 μM, no NaNO3, pH 2 (HCl), 4 hr): 98.6% | Nitration (%) ([3]; NaNO2 100 μM, no NaNO3, pH 2 (phosphate), 4 hr): 4.27% | Nitration (%) ([3]; NaNO2 100 μM, no NaNO3, pH 6.4, 4 hr): 0.013% | Nitration (%) ([3]; NaNO2 100 μM, no NaNO3, pH 7.2, 4 hr): 0% | Nitration (%) ([3]; NaNO2 100 μM, no inhibiting agent, pH 6.4, 24 hr): 0.02% | Nitration (%) ([3]; NaNO2 400 μM, no inhibiting agent, pH 6.4, 24 hr): 0.12% | Nitration (%) ([3]; NaNO2 800 μM, no inhibiting agent, pH 6.4, 24 hr): 0.21% | Nitration (%) ([3]; NaNO3 2500 μM, NaNO2 100 μM, pH 2 (HCl), 4 hr): 8.4% | Nitration (%) ([3]; NaNO3 2500 μM, NaNO2 100 μM, pH 2 (phosphate), 4 hr): 9.63% | Nitration (%) ([3]; NaNO3 2500 μM, NaNO2 100 μM, pH 6.4, 4 hr): 0.017% | Nitration (%) ([3]; NaNO3 2500 μM, NaNO2 100 μM, pH 7.2, 4 hr): 0% | Nitration (%) ([3]; NaNO3 2500 μM, no NaNO2, pH 2 (HCl), 4 hr): 0% | Nitration (%) ([3]; NaNO3 2500 μM, no NaNO2, pH 2 (phosphate), 4 hr): 0% | Nitration (%) ([3]; NaNO3 2500 μM, no NaNO2, pH 6.4, 4 hr): 0% | Nitration (%) ([3]; NaNO3 2500 μM, no NaNO2, pH 7.2, 4 hr): 0% | Nitration (%) ([3]; no NaNO3, no NaNO2, pH 2 (HCl), 24 hr): 0% | Nitration (%) ([3]; no NaNO3, no NaNO2, pH 2 (phosphate), 24 hr): 0% | Nitration (%) ([3]; no NaNO3, no NaNO2, pH 6.4, 24 hr): 0% | Nitration (%) ([3]; no NaNO3, no NaNO2, pH 7.2, 24 hr): 0% | administered dose nitrated [4]: around 6%

— patent US20090220598A1, “Stable Oral Pharmaceutical Composition Containing Thyroid Hormone Receptor Agonists” (priority 2006, published 2009)
